Experimental data published in patent US20220289753A1, “SHP2 INHIBITORS” (IRBM S.P.A., priority 2019, published 2022).
pIC50: −log10 of the molar value.

Target: T1, SHP-2 enzyme (Met1-Leu525) (Homo sapiens, UniProt Q06124)
T1 construct: synthetized by Origene, Met1-Leu525, cat #TP750155; purchased Origene TP750155
T1 sequence (Q06124 1-525): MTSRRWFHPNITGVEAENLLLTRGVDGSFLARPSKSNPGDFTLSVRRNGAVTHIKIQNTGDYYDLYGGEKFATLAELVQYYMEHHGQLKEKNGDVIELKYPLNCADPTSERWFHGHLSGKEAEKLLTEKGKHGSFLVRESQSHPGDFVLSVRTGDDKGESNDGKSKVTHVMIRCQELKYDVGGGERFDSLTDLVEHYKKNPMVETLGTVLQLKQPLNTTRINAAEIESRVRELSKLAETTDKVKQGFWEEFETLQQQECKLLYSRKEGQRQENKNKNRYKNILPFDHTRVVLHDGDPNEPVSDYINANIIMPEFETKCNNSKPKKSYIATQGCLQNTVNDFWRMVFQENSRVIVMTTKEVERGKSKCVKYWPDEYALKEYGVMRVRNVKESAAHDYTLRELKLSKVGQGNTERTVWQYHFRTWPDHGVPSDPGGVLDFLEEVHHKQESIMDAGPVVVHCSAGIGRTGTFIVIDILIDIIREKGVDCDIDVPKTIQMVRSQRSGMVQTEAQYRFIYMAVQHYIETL
Assay: SHP2 inhibition enzymatic assay (DiFMUP substrate, IRS1 peptide activation)
Assay type: biochemical
Conditions: SHP2 wt; activated by 500 nM IRS1 peptide; 75 μM DiFMUP substrate
Method: SHP2 Inhibition Enzymatic Assay
Assay volume of 20 μL/well was assembled in 384 well black polystyrene low-binding microplates (Greiner), using the following buffer: 60 mM HEPES pH 7.2, 75 mM NaCl, 75 mM KCl, 1 mM EDTA pH 8, 0.05% tween-20, 5 mM DTT. The SHP-2 enzyme (synthetized by Origene, Met1-Leu525, cat #TP750155) was used at a final concentration of 0.5 nM.
Briefly, DMSO serially diluted testing compounds were transferred to the bottom of the assay plate. SHP2 was then added together with the IRS1 peptide. 30 minutes post incubation, the DiFMUP substrate was added to the reaction and incubated 30 min at room temperature. […] The fluorescence was detected by a microplate reader (Envision, PerkinElmer) according to the DiFMUP excitation and emission wavelength. The lower the fluorescence the higher the SHP2 inhibition.
The percentage inhibition is fitted against the compound dilutions with a four-parameter logistic regression. The inflection point (i.e. the concentration at which half-maximal inhibition is achieved) is the IC50.

SMILES: FC(F)(F)c1ncccc1Sc1cnc2[nH]c(N3CCC(Cn4ccnc4)CC3)nc2n1 [Example 42, 2-(4-((1H-imidazol-1-yl)methyl)piperidin-1-yl)-5-((2-(trifluoromethyl)pyridin-3-yl)thio)-1H-imidazo[4,5-b]pyrazine]
- pIC50: 5.52 to 6.30

SMILES: FC(F)(F)c1ncccc1Sc1cnc2[nH]c(NCCc3cn4ccccc4n3)nc2n1 [Example 43, N-(2-(imidazo[1,2-a]pyridin-2-yl)ethyl)-5-((2-(trifluoromethyl)pyridin-3-yl)thio)-1H-imidazo[4,5-b]pyrazin-2-amine]
- pIC50: 5.52 to 6.30

SMILES: FC(F)(F)c1ncccc1Sc1cnc2[nH]c(N3CCC34CCNCC4)nc2n1 [Example 44, 2-(1,7-diazaspiro[3.5]nonan-1-yl)-5-((2-(trifluoromethyl)pyridin-3-yl)thio)-1H-imidazo[4,5-b]pyrazine]
- pIC50: 5.52 to 6.30

SMILES: COc1ccc(Sc2cnc3[nH]c(N4CCC(C)(N)CC4)nc3n2)cc1 [Example 45, 1-(5-((4-methoxyphenyl)thio)-1H-imidazo[4,5-b]pyrazin-2-yl)-4-methylpiperidin-4-amine]
- pIC50: 5.52 to 6.30

SMILES: CC1(N)CCN(c2nc3nc(Sc4cccc(C5CC5)c4)cnc3[nH]2)CC1 [Example 46, 1-(5-((3-cyclopropylphenyl)thio)-1H-imidazo[4,5-b]pyrazin-2-yl)-4-methylpiperidin-4-amine]
- pIC50: 5.52 to 6.30

SMILES: CC1(N)CCN(c2nc3nc(Sc4cccc(C(F)(F)F)n4)cnc3[nH]2)CC1 [Example 47, 4-methyl-1-(5-((6-(trifluoromethyl)pyridin-2-yl)thio)-1H-imidazo[4,5-b]pyrazin-2-yl)piperidin-4-amine]
- pIC50: 5.52 to 6.30

SMILES: Cc1nc(-c2cccc(Sc3cnc4[nH]c(N5CCC(C)(N)CC5)nc4n3)c2)cs1 [Example 48, 4-methyl-1-(5-((3-(2-methylthiazol-4-yl)phenyl)thio)-1H-imidazo[4,5-b]pyrazin-2-yl)piperidin-4-amine]
- pIC50: 5.52 to 6.30

SMILES: CC1(N)CCN(c2nc3ncc(Sc4cccc5ncccc45)nc3[nH]2)CC1 [Example 49, 4-methyl-1-(6-(quinolin-5-ylthio)-1H-imidazo[4,5-b]pyrazin-2-yl)piperidin-4-amine]
- pIC50: > 6.30

SMILES: FC(F)(F)c1ncccc1Sc1cnc2[nH]c(Nc3ccc4n[nH]cc4c3)nc2n1 [Example 50, N-(2H-indazol-5-yl)-5-((2-(trifluoromethyl)pyridin-3-yl)thio)-1H-imidazo[4,5-b]pyrazin-2-amine]
- pIC50: 5.52 to 6.30

SMILES: NC(=O)C1CCN(c2nc3nc(Sc4cccnc4C(F)(F)F)cnc3[nH]2)CC1 [Example 51, 1-(5-((2-(trifluoromethyl)pyridin-3-yl)thio)-1H-imidazo[4,5-b]pyrazin-2-yl)piperidine-4-carboxamide]
- pIC50: < 5.52

SMILES: Cn1cnc(C2CCN(c3nc4nc(Sc5cccnc5C(F)(F)F)cnc4[nH]3)CC2)c1 [Example 53, 2-(4-(1-methyl-1H-imidazol-4-yl)piperidin-1-yl)-5-((2-(trifluoromethyl)pyridin-3-yl)thio)-1H-imidazo[4,5-b]pyrazine]
- pIC50: < 5.52

SMILES: CC(N)CCNc1nc2nc(Sc3cccnc3C(F)(F)F)cnc2[nH]1 (stereo not drawn) [Example 54, N1-(5-((2-(trifluoromethyl)pyridin-3-yl)thio)-1H-imidazo[4,5-b]pyrazin-2-yl)butane-1,3-diamine]
- pIC50: 5.52 to 6.30

SMILES: NCC1CN(c2nc3nc(Sc4cccnc4C(F)(F)F)cnc3[nH]2)C1 [Example 55, (1-(5-((2-(trifluoromethyl)pyridin-3-yl)thio)-1H-imidazo[4,5-b]pyrazin-2-yl)azetidin-3-yl)methanamine]
- pIC50: 5.52 to 6.30

SMILES: FC(F)(F)c1ncccc1Sc1cnc2[nH]c(N3CCN4CCNCC4C3)nc2n1 (stereo not drawn) [Example 56, 2-(5-((2-(trifluoromethyl)pyridin-3-yl)thio)-1H-imidazo[4,5-b]pyrazin-2-yl)octahydro-2H-pyrazino[1,2-a]pyrazine]
- pIC50: 5.52 to 6.30

SMILES: Cn1nc(-c2ccc(Sc3cnc4[nH]c(N5CCC(C)(N)CC5)nc4n3)s2)cc1C(F)(F)F [Example 57, 4-methyl-1-(5-((5-(1-methyl-5-(trifluoromethyl)-1H-pyrazol-3-yl)thiophen-2-yl)thio)-1H-imidazo[4,5-b]pyrazin-2-yl)piperidin-4-amine]
- pIC50: < 5.52

SMILES: CC1(N)CCN(c2nc3nc(Sc4cccc(-c5ccccc5)c4)cnc3[nH]2)CC1 [Example 58, 1-(5-([1,1′-biphenyl]-3-ylthio)-1H-imidazo[4,5-b]pyrazin-2-yl)-4-methylpiperidin-4-amine]
- pIC50: 5.52 to 6.30

SMILES: CC1(N)CCN(c2nc3nc(Sc4ccc(-c5nnc(-c6ccccc6)o5)cc4)cnc3[nH]2)CC1 [Example 59, 4-methyl-1-(5-((4-(5-phenyl-1,3,4-oxadiazol-2-yl)phenyl)thio)-1H-imidazo[4,5-b]pyrazin-2-yl)piperidin-4-amine]
- pIC50: 5.52 to 6.30

SMILES: CCn1c(N2CCC(C)(N)CC2)nc2nc(Sc3cccnc3C(F)(F)F)cnc21 [Example 63, 1-(1-ethyl-5-((2-(trifluoromethyl)pyridin-3-yl)thio)-1H-imidazo[4,5-b]pyrazin-2-yl)-4-methylpiperidin-4-amine]
- pIC50: 5.52 to 6.30

SMILES: CC1(N)CCN(c2nc3nc(Sc4ccnc(Br)c4)cnc3[nH]2)CC1 [Example 64, 1-(5-((2-bromopyridin-4-yl)thio)-1H-imidazo[4,5-b]pyrazin-2-yl)-4-methylpiperidin-4-amine]
- pIC50: 5.52 to 6.30

SMILES: CC1(N)CCN(c2nc3nc(Sc4ccn5nccc5n4)cnc3[nH]2)CC1 [Example 65, 4-methyl-1-(5-(pyrazolo[1,5-a]pyrimidin-5-ylthio)-1H-imidazo[4,5-b]pyrazin-2-yl)piperidin-4-amine]
- pIC50: < 5.52

SMILES: CC1(N)CCN(c2nc3nc(Sc4cccc(O)n4)cnc3[nH]2)CC1 [Example 66, 6-((2-(4-amino-4-methylpiperidin-1-yl)-1H-imidazo[4,5-b]pyrazin-5-yl)thio)pyridin-2-ol]
- pIC50: < 5.52

SMILES: CN1CCOc2ccc(Sc3cnc4[nH]c(N5CCC(C)(N)CC5)nc4n3)cc21 [Example 67, 4-methyl-1-(5-((4-methyl-3,4-dihydro-2H-benzo[b][1,4]oxazin-6-yl)thio)-1H-imidazo[4,5-b]pyrazin-2-yl)piperidin-4-amine]
- pIC50: < 5.52

SMILES: Cc1ccsc1Sc1cnc2[nH]c(N3CCC(C)(N)CC3)nc2n1 [Example 68, 4-methyl-1-(5-((3-methylthiophen-2-yl)thio)-1H-imidazo[4,5-b]pyrazin-2-yl)piperidin-4-amine]
- pIC50: < 5.52

SMILES: COc1ccc2nc(Sc3cnc4[nH]c(N5CCC(C)(N)CC5)nc4n3)ccc2c1 [Example 69, 1-(5-((6-methoxyquinolin-2-yl)thio)-1H-imidazo[4,5-b]pyrazin-2-yl)-4-methylpiperidin-4-amine]
- pIC50: 5.52 to 6.30

SMILES: CC1(N)CCN(c2nc3nc(Sc4cccc5cnccc45)cnc3[nH]2)CC1 [Example 70, 1-(5-(isoquinolin-5-ylthio)-1H-imidazo[4,5-b]pyrazin-2-yl)-4-methylpiperidin-4-amine]
- pIC50: > 6.30

SMILES: CCn1c(N2CCC(C)(N)CC2)nc2ncc(Sc3cccnc3C(F)(F)F)nc21 [Example 72, 1-(1-ethyl-6-((2-(trifluoromethyl)pyridin-3-yl)thio)-1H-imidazo[4,5-b]pyrazin-2-yl)-4-methylpiperidin-4-amine]
- pIC50: < 5.52

SMILES: CC1(N)CCN(c2nc3nc(Sc4ccsc4Cl)cnc3[nH]2)CC1 [Example 73, 1-(5-((2-chlorothiophen-3-yl)thio)-1H-imidazo[4,5-b]pyrazin-2-yl)-4-methylpiperidin-4-amine]
- pIC50: > 6.30
